Key:
[1] = logP determination by HPLC on reverse-phase column (C 18), EEC Directive 79/831 Annex V.A8; format: physicochemical; settings: reverse-phase C18 HPLC column; pH 2.3; HPLC reverse-phase C 18; 43° C.; 0.1% aqueous phosphoric acid/acetonitrile gradient
Method: The determination of the logP values given in the tables and Preparation Examples above is carried out in accordance with EEC Directive 79/831 Annex V.A8 by HPLC (High Performance Liquid Chromatography) on a reverse-phase column (C 18). Temperature: 43° C.
The determination is carried out in the acidic range at pH 2.3 using the mobile phases 0.1% aqueous phosphoric acid and acetonitrile; linear gradient from 10% acetonitrile to 90% acetonitrile.
Calibration is carried out using unbranched alkan-2-ones (of 3 to 16 carbon atoms) with known logP values (determination of the logP values by the retention times using linear interpolation between two successive alkanones).

Venturia inaequalis = assay: Venturia Test (Apple)/Protective; format: in vivo; settings: 240 h, protective spray, application rate 10 g/ha, evaluation 10 days after inoculation, 100% = no infection, read-out: % efficacy
Method: Venturia Test (Apple)/Protective
(§1) To produce a suitable preparation of active compound, 1 part by weight of active compound is mixed with the stated amounts of solvents and emulsifier, and the concentrate is diluted with water to the desired concentration.
To test for protective activity, young plants are sprayed with the preparation of active compound at the stated application rate. After the spray coating has dried on, the plants are inoculated with an aqueous conidia suspension of the apple scab pathogen Venturia inaequalis and then remain in an incubation cabin at about 20° C. and 100% relative atmospheric humidity for 1 day.
The plants are then placed in a greenhouse at about 21° C. and a relative atmospheric humidity of about 90%.
Evaluation is carried out 10 days after the inoculation. 0% means an efficacy which corresponds to that of the control, whereas an efficacy of 100% means that no infection is observed.

Botrytis cinerea = assay: Botrytis Test (Bean)/Protective; format: in vivo; settings: 48 h, protective spray, application rate 100 g/ha, evaluation 2 days after inoculation, 100% = no infection, read-out: % efficacy
Method: Botrytis Test (Bean)/Protective
as §1
To test for protective activity, young plants are sprayed with the preparation of active compound at the stated application rate. After the spray coating has dried on, 2 small pieces of agar colonized by Botrytis cinerea are placed onto each leaf. The inoculated plants are placed in a dark chamber at about 20° C. and 100% relative atmospheric humidity.
2 days after the inoculation, the size of the infected areas on the leaves is evaluated. 0% means an efficacy which corresponds to that of the control, whereas an efficacy of 100% means that no infection is observed.

Rhizoctonia solani = assay: In vitro test for the ED50 determination of microorganisms; format: cell-based; settings: 50% inhibition of fungal growth, tested at 0.1, 1, 10 and 100 ppm, 22° C., 3-5 days, photometric 620 nm
Method: (§2) In Vitro Test for the ED50 Determination of Microorganisms
(§3) A methanolic solution of the active compound to be tested, mixed with the emulsifier PS16, is pipetted into the wells of microtiter plates. After the solvent has evaporated, 200 μl of potato/dextrose medium are added to each well.
(§4) Beforehand, a suitable concentration of spores or mycelium of the fungus to be tested was added to the medium.
(§5) The resulting concentrations of active compound are 0.1, 1, 10 and 100 ppm. The resulting concentration of the emulsifier is 300 ppm.
(§6) The plates are then incubated on a shaker at a temperature of 22° C. for 3-5 days, until sufficient growth can be observed in the untreated control.
(§7) Evaluation is carried out photometrically at a wavelength of 620 nm. The dose of active compound which causes a 50% inhibition of fungal growth compared to the untreated control (ED50) is calculated from the data measured at different concentrations.

Septoria tritici = assay: as above; format: cell-based; settings: 50% inhibition of fungal growth, tested at 0.1, 1, 10 and 100 ppm, 22° C., 3-5 days, photometric 620 nm
Method: as §2, §3, §4, §5, §6, §7

Row | Structure (SMILES) | chromatographic logP [1] | pest or weed control at 10 g/ha (Venturia inaequalis) [%] | pest or weed control at 100 g/ha (Botrytis cinerea) [%] | ED50 (Rhizoctonia solani) [ppm] | ED50 (Septoria tritici) [ppm]
1 | Cc1nc(C(F)F)c(C(=O)Nc2ccccc2-c2ccc(F)c(Cl)c2)s1 [Example 1, N-(3′-chloro-4′-fluoro-1,1′-biphenyl-2-yl)-2-methyl-4-(difluoromethyl)-1,3-thiazole-5-carboxamide] | 3.28 |  |  |  | 
2 | Cc1nc(C(F)F)c(C(=O)Nc2ccccc2-c2ccc(Br)cc2)s1 [Example 2] | 3.47 | 100 | 100 |  | 
3 | Cc1nc(C(F)F)c(C(=O)Nc2ccccc2-c2ccc(C(F)(F)F)cc2)s1 [Example 3] | 3.52 | 100 | 100 | < 0.1 | 0.36
4 | Cc1nc(C(F)F)c(C(=O)Nc2ccccc2-c2cccc(Cl)c2)s1 [Example 4] | 3.37 | 100 | 100 | < 0.1 | 0.45
5 | Cc1nc(C(F)F)c(C(=O)Nc2ccccc2-c2ccc(OC(F)(F)F)cc2)s1 [Example 5] | 3.72 | 87 | 79 | < 0.1 | 0.25
6 | CSc1ccc(-c2ccccc2NC(=O)c2sc(C)nc2C(F)F)cc1 [Example 6] | 3.39 | 99 | 94 | 3.25 | 3.51
7 | Cc1nc(C(F)F)c(C(=O)Nc2ccccc2-c2ccc(F)cc2)s1 [Example 7] | 3.09 | 100 | 94 | 0.48 | 0.68
8 | Cc1nc(C(F)F)c(C(=O)Nc2ccccc2-c2ccc(Cl)cc2Cl)s1 [Example 9] | 3.58 | 98 | 95 |  | 
9 | Cc1nc(C(F)F)c(C(=O)Nc2ccccc2-c2ccc(Cl)cc2C)s1 [Example 10] | 3.77 | 100 | 100 |  | 
10 | Cc1nc(C(F)F)c(C(=O)Nc2ccccc2-c2ccc(Cl)c(F)c2)s1 [Example 11] | 3.29 | 100 | 100 |  | 
11 | Cc1nc(C(F)F)c(C(=O)Nc2ccccc2-c2ccc(C)c(Cl)c2)s1 [Example 12] | 3.62 | 100 | 100 |  | 

Reference: US7388097B2, “Difluoromethyl thiazolyl carboxanilides” (Bayer CropScience AG, priority 2002, dated 2008)
